Values of other authors in patent US20170071839A1, “Personal care and medicinal products incorporating organosulfur groups” (priority 2015, published 2017).
Like-named read-outs stand apart in the source and are kept apart here.

Tests used:
[1] = test system: Salmonella typhimurium and E. coli
[2] = after garlic consumption
[3] = target: NFkB signal transduction proteins p50 and P65 (Homo sapiens, UniProt P19838+Q04206)
[4] = not given; remark: listed apart in the source
[5] = test system: acetaminophen (Tylenol) poisoning
[6] = test system: total glutathione level of cells
NFkB = conditions: macrophages
[7] = after fresh garlic (e.g. 25 g) or pure allicin (60 mg)
[8] = shelf stability

For `CCCSSCCC` [di-n-proply disulfide], the antibiotic effectiveness [1] is given as “antibiotic effectiveness”.

For `C=CCS` [AllylSH, AllylThiol], the solubility is given as “water soluble” and the “time of disappearance from breath” value [2] is given as at most 1 h.

In the case of S-allylcysteine sulfoxide [alliin], the “effect on Cu2+ induced LDL oxidation” value (LDL) is listed as “significantly reduce”.

For `C=CCSC[C@H](N)C(=O)O` [S-allylcysteine], the “effect on Cu2+ induced LDL oxidation” value (LDL) is given as “significantly reduce”.

In the case of `C=CCSSCCC` [n-propyl allyl disulfide], the antibiotic effectiveness [1] is given as “antibiotic effectiveness”.

In the case of `CS[S+](C)[O-]` (stereo not drawn) [methyl methane thiosulfinate], the “activity against E-coli O157:H7” value (E-coli O157:H7) is listed as “effective”.

In the case of `[N]=O` [nitric oxide], the “concentration that inhibited the DNA binding activity” value [3] is listed as 20-100 nano mole.

In the case of `C=CCS[S+](C)[O-]` (stereo not drawn) [methyl allyl thiosulfinate], the “activity against E-coli O157:H7” value (E-coli O157:H7) is listed as “effective”.

In the case of `CCCS[S+]([O-])CCC` (stereo not drawn) [dipropylthiosulfinate], the nematicidal activity (nematicidal activity) is listed as “most effective compound”.

In the case of `C=CCSSC[C@H](N)C(=O)O` [SAMC, S-AllylMercaptoCysteine], the “Reaction in Blood Product (moles)” value [4] is given as “AllylSH (0.8)”, the “protection from acetaminophen poisoning” value ([5]; post treatment, single dose 200 mg/kg) is given as “protective” and the “protection from acetaminophen poisoning” value ([5]; pretreatment) is given as “protect mice”. The “total glutathione level of cells” value [6] was “significantly increase the total glutathione level” and the “effect on Cu2+ induced LDL oxidation” value (LDL) was “significantly reduce”.

For `N[C@@H](CSN=O)C(=O)O` [S-Nitrosocysteine], the “concentration that nearly completely inhibits the activation of NFkB” value (NFkB) is listed as 1 micro-mole.

In the case of `C=CCSSCC=C` [DADS, Diallyl Disulfide], the “Reaction in Blood Product (moles)” value [4] is listed as “AllylSH (0.8)”.

For `N[C@@H](CSSC[C@H](N)C(=O)O)C(=O)O` [Cysteine disulfide, Cystine], the solubility is given as “low solubility”.

For `C=CCSC` [AMS, allyl methyl sulfide], the “time of disappearance from breath” value [2] is listed as 20 h.

For `C=CCSC[C@H](NC(C)=O)C(=O)O` [N-acetyl-S-allylcysteine], the “effect on Cu2+ induced LDL oxidation” value (LDL) is listed as “significantly reduce”.

For `C=CCS[S+]([O-])CC=C` (stereo not drawn) [Allicin, DiAllylThioSulfinate], the “Reaction in Blood Product (moles)” value [4] is listed as “AllylSH (1.6)”, the “time to be metabolized to allyl mercaptan” value ([4]; red blood cells exposed to allicin) is listed as “less than one” and the “detection in blood, urine, or stool” value [7] is listed as “undetectable”. The half-life [8] was “weeks to months”.
